Consider one compound from article PMC6657233 (Translational Oncology, 2019).

For this assay, the target named is T1, adenosine transporter (AT; NBMPR-sensitive equilibrative nucleoside transporter subtype, ENT) (Homo sapiens, UniProt Q99808).
T1 sequence (Q99808 2-456): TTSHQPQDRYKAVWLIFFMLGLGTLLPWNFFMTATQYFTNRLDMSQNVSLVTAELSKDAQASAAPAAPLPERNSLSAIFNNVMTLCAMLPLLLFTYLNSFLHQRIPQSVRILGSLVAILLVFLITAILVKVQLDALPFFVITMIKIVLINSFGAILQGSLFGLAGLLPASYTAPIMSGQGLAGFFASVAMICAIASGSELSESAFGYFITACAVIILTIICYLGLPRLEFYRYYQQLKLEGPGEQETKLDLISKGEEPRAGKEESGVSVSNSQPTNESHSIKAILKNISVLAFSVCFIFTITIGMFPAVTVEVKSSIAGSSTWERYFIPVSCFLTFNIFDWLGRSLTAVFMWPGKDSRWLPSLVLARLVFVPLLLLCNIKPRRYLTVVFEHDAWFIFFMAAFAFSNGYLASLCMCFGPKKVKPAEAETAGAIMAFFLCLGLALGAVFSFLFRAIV
The experiment in a line: [3H]adenosine uptake inhibition in HeLa cells. The note with it: read-out: Findings. Type of assay: cell-based.

Molecules are shown by their SMILES.

For the compound `COCCOc1cnc2ccn([C@H](C)c3nnc4c(F)cc(-c5cnn(C)c5)cn34)c(=O)c2c1` [AMG 337], the IC50 came to 280 nM.
